Measurements published in patent US20100107281A1, “PESTICIDAL COMBINATIONS” (priority 2006, published 2010).

Tested on: Soybean Cyst Nematode (Heterodera Glycines)
Test: Soybean cyst nematode reproduction on seed-treated soybean plants in cone-tainers, eggs counted 30 days after inoculation
Assay type: in vivo
Settings: soybean seed treatment
From the text: The expected percentage of disease control to be expected, E, for a given combination of two active ingredients can be calculated as follows (see COLBY, S. R. “Calculating synergistic and antagonistic response of herbicide combinations”. Weeds 15, pages 20-22; 1967):
wherein: X=% disease control in the case of treatment with active ingredient (A) at a defined application rate, in comparison with untreated control (=0%). Y=% disease control in the case of treatment with active ingredient (B) at a defined application rate, in comparison with untreated control. E=expected percentage of disease control (% disease control in comparison with untreated control) after treatment with active ingredient (A) and active ingredient (B) at a defined application rate. If the observed percentage of disease control O is greater than the expected value E, there is a synergistic effect.
Soybeans were planted into “cone-tainers” (3.8 cm cell diameter; 14 cm cell depth; the Ray Leach “Cone-tainer” Single Cell System consists of individual cells that can be arranged within a tray and is available from Stuewe and Sons Incorporated) in 70% sand 30% clay loam soil mix (one soybean seed per cone-tainer). The cone-tainers contained a 10 cm by 10 cm piece of cheesecloth at the bottom to prevent the soil coming out of the bottom. The soil mix was autoclaved for 60 minutes prior to use. Extra cone-tainers were planted which allowed similar size soybean plants to be selected and placed into a randomized complete block design with 3 replications of each treatment. The cone-tainers were placed into a growth chamber set at 27° C. and 14 hour day light periods. The air temperature in the growth chamber was monitored in 15 minutes intervals using a watchdog data collector. […] The water source was supplemented with fertilizer to promote plant growth.
Soil was collected from a field with “HG type” 2.5.7 (The “HG type” test is a greenhouse test that provides information on how well a soybean cyst nematode “Heterodera glycines, HG” population can reproduce in a particular soil). The soil was added to water and poured over a 25 mesh sieve over a 60 mesh sieve to collect the cysts. The soil solution collected on the 60 mesh sieve was then placed onto a 120 mesh sieve over 500 mesh sieve. […]
The soybean plants were inoculated with 6,000 soybean cyst nematode eggs 7 days after the planting of the soybeans into the cone-tainers. […] The air temperature in the growth chamber was monitored in 15 minutes intervals using a watchdog data collector. […]
The plants were removed from the growth chamber 30 days after inoculation to assess the nematode reproduction factor. […] The total number of soybean cyst nematode eggs present in each sample was determined. […]

Molecule	Observed Rf (nematode reproduction factor) (2.5 g acibenzolar-S-methyl/100 kg seed, 30 days after inoculation)	Observed Rf (nematode reproduction factor) (5.0 g acibenzolar-S-methyl/100 kg seed, 30 days after inoculation)	Observed Rf (nematode reproduction factor) (10.0 g acibenzolar-S-methyl/100 kg seed, 30 days after inoculation)	Observed Rf (nematode reproduction factor) (0.15 mg abamectin/seed, 30 days after inoculation with 6,000 eggs)
CSC(=O)c1cccc2nnsc12 [(B-1), acibenzolar-S-methyl]	4.1	2.7	3.9	–
abamectin [(A-a)]	–	–	–	2.5
